According to ChEMBL document CHEMBL1201862, “PubChem BioAssay data set” (2004):
Active and inactive are the calls of the source.

What was measured:
[1] = target: T1, Intestinal-type alkaline phosphatase (Homo sapiens, UniProt P09923); assay: human intestinal alkaline phosphatase activators, dose response, biochemical, luminescence, uHTS hits (AID 463120); type: functional
[2] = target: T1, Intestinal-type alkaline phosphatase; assay: Dose Response confirmation of uHTS hits from a small molecule inhibitors of human intestinal alkaline phosphatase via a luminescent assay. [Related pubchem assays (depositor defined):AID2544, AID2574]; type: functional
[3] = target: Induced myeloid leukemia cell differentiation protein Mcl-1 (Homo sapiens, UniProt Q07820); type: functional
[4] = target: T2, Zinc finger protein mex-5 (Caenorhabditis elegans, UniProt Q9XUB2); assay: MEX-5/TCR-2 RNA interaction inhibitors, dose response, biochemical, C. elegans, fluorescence polarization (AID 1960)
T2 sequence (Q9XUB2 whole entry): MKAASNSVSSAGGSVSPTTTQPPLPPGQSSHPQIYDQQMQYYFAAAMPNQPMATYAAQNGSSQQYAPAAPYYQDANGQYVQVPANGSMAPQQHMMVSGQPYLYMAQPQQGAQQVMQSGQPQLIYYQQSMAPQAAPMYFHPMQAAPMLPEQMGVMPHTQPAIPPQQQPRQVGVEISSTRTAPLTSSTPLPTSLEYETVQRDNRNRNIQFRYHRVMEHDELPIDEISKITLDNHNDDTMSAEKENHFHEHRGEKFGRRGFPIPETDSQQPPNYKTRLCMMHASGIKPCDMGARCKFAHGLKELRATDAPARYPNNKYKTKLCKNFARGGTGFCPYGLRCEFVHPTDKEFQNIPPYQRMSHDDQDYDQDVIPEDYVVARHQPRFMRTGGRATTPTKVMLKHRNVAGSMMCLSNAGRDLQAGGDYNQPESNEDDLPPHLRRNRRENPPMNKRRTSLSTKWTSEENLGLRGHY

[5] = target: T3, Voltage-gated N-type calcium channel alpha-1B subunit/Amyloid beta A4 precursor protein-binding family A member 1 (Homo sapiens, UniProt Q00975+Q02410); type: protein assay
T3 sequence (Q00975 whole entry): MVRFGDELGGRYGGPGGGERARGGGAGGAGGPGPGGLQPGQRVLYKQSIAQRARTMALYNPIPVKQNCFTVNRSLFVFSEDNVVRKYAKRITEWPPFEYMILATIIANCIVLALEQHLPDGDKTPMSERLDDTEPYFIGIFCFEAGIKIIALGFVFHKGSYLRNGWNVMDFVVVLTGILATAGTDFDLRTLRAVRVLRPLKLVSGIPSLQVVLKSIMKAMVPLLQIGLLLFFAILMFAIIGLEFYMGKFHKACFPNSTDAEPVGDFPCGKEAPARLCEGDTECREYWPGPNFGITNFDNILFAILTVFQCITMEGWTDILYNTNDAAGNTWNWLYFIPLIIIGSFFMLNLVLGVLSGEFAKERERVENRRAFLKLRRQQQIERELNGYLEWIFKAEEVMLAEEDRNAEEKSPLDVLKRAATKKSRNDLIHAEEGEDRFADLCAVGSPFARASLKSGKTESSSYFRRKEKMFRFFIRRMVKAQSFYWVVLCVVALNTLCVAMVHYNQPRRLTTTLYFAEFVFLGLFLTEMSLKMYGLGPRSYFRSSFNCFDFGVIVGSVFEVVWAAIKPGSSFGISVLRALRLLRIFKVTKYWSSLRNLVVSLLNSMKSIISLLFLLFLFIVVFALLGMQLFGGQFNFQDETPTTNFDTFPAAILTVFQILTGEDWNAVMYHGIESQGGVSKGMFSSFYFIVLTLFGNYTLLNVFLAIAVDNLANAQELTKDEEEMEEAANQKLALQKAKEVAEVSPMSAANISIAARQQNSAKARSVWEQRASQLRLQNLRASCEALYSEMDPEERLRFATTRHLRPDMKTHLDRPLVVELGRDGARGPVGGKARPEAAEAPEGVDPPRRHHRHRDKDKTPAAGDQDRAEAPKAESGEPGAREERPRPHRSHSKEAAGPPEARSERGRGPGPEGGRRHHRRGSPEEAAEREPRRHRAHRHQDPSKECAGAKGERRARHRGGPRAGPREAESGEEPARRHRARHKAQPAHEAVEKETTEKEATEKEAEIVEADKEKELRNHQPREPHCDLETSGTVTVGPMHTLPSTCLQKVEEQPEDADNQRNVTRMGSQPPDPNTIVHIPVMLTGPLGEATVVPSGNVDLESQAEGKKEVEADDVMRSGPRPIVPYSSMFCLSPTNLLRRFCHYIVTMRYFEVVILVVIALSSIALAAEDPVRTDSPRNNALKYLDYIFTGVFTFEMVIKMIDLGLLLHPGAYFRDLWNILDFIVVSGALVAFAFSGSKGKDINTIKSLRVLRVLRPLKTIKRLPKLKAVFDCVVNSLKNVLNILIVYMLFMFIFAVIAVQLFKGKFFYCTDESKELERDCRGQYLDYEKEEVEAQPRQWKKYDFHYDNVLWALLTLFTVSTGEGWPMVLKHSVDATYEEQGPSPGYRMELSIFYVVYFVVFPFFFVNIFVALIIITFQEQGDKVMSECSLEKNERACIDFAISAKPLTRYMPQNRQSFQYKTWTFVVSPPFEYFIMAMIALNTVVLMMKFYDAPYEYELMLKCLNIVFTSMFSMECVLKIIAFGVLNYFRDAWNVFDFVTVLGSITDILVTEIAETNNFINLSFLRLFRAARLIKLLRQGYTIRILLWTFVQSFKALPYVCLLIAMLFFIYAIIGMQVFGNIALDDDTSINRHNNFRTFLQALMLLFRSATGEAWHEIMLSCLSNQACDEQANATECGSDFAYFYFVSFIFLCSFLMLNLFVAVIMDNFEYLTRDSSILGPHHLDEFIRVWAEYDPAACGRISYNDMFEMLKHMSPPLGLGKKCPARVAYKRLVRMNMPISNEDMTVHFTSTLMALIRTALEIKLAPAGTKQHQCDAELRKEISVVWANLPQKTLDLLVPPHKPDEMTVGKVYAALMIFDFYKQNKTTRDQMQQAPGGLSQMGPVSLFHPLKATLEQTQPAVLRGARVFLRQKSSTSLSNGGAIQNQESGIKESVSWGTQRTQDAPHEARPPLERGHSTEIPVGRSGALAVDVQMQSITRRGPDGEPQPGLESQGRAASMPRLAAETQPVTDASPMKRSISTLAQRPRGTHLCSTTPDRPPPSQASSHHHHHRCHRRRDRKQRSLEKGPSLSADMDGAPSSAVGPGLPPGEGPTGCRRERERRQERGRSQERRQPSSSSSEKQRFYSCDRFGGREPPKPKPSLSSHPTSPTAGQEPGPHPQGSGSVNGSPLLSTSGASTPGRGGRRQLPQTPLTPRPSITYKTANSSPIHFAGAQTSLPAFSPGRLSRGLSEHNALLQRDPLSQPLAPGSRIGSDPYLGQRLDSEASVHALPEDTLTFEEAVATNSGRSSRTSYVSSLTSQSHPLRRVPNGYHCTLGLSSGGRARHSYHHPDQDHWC
T3 sequence (Q02410 whole entry): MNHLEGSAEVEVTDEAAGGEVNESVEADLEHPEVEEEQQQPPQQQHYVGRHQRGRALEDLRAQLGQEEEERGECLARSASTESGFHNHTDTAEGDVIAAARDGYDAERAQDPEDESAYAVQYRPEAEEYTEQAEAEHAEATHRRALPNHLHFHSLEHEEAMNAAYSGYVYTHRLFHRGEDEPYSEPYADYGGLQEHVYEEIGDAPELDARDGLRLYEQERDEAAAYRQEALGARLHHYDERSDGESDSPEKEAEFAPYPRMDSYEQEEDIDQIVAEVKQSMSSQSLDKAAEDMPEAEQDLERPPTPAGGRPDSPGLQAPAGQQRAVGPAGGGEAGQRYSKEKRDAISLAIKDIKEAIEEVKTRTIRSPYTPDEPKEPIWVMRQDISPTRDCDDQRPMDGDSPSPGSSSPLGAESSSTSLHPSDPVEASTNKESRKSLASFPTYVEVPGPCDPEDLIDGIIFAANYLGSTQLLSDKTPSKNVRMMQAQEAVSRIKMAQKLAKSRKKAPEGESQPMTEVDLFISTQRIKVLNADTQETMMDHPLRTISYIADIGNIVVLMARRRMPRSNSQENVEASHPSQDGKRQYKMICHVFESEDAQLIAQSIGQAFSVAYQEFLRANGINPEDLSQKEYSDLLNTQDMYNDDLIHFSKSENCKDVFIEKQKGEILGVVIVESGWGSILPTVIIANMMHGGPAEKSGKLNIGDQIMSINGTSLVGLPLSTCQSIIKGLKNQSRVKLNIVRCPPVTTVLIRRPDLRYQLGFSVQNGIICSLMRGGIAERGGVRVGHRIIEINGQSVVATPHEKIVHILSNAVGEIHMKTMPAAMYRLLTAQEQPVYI

[6] = target: T4, SUMO-activating enzyme (Homo sapiens, UniProt Q9UBT2); assay: inhibitors of in vitro SUMOylation cascade, primary screen, biochemical, HTRF, uHTS (AID 2006); type: protein-complex assay
T4 sequence (Q9UBE0 whole entry): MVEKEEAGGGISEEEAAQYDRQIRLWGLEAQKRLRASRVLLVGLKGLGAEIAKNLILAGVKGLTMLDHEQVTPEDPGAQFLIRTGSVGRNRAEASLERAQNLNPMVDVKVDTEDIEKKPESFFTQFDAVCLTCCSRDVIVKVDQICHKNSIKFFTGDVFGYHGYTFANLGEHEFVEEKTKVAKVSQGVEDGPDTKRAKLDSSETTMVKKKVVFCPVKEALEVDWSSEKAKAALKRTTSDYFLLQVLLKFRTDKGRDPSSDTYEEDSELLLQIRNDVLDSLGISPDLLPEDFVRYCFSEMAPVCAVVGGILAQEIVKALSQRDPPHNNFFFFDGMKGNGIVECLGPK
T4 sequence (Q9UBT2 whole entry): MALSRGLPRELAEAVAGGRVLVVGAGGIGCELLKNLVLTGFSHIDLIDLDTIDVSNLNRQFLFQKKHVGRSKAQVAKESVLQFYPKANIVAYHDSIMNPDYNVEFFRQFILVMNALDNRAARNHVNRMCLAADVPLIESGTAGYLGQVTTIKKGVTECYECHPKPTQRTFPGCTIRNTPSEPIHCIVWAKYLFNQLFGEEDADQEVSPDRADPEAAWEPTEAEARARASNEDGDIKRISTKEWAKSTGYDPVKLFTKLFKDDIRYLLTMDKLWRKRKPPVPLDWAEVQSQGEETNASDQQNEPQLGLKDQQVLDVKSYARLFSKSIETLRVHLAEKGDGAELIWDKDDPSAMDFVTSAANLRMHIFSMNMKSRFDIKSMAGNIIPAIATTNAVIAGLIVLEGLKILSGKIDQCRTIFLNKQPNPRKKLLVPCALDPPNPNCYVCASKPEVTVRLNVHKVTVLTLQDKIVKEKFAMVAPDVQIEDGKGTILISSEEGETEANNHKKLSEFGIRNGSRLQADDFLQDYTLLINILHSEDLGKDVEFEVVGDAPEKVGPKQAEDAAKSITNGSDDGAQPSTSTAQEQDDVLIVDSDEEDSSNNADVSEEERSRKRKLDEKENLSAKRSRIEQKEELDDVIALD

[7] = target: T3, Voltage-gated N-type calcium channel alpha-1B subunit/Amyloid beta A4 precursor protein-binding family A member 1; type: protein assay; remark: listed apart in the source
[8] = target: T5, RNA-binding protein pos-1 (Caenorhabditis elegans, UniProt G5EF15); assay: inhibitors of POS-1/mex-3 RNA binding, dose response, biochemical, fluorescence polarization (AID 1964);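 also: purified POS-1 fused to maltose binding protein made in E. coli; potency of compounds blocking POS-1 binding to fluorescent RNA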
T5 sequence (G5EF15 whole entry): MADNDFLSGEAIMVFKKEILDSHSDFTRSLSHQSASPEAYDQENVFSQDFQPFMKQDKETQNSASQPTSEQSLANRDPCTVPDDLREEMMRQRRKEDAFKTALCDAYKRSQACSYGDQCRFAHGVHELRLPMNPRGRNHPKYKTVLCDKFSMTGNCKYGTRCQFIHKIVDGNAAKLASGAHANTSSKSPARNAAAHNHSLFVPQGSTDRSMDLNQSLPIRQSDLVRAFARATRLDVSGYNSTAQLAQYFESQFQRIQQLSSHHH

[9] = target: T4, SUMO-activating enzyme; assay: SUMOylation inhibitor hit validation, confirmation, SUMOylation inhibitor project, biochemical, AlphaScreen (AID 2018); type: functional
[10] = system: Vero; assay: cells; type: functional; details: Chlorocebus sabaeus
[11] = target: Ion channel NompC (Danio rerio, UniProt Q7T1G6); assay: Dose response cell-based high-throughput screening assay for agonists of the transient receptor potential channel N1 (TRPN1). [Related pubchem assays (depositor defined):AID1424, AID1448]; type: functional
[12] = target: Mucolipin-3 (Homo sapiens, UniProt Q8TDD5); assay: Fluorescence counterscreen assay for […] agonists: dose response cell-based high-throughput screening assay to identify agonists of the transient receptor potential channel ML3 (TRPML3). [Related pubchem assays: 1424, 1448 ]; type: functional
[13] = target: T6, Corticotropin-releasing factor receptor 2/Corticotropin-releasing factor-binding protein (Homo sapiens, UniProt P24387+Q13324); assay: activators of CRF receptor 2 with binding protein – uHTS hits, confirmation (AID 602473); type: functional; details: read-out: EC50_Mean
T6 sequence (Q13324 whole entry): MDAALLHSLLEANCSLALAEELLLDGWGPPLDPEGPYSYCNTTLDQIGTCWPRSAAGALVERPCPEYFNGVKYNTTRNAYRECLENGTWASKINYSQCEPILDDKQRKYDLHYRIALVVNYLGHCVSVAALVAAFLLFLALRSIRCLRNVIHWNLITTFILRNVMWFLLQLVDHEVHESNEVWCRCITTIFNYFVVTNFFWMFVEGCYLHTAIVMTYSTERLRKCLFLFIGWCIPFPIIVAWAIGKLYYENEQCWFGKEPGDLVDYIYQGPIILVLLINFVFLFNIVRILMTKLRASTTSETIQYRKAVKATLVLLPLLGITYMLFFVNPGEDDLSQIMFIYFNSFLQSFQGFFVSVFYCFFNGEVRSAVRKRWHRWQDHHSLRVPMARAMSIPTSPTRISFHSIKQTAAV
T6 sequence (P24387 whole entry): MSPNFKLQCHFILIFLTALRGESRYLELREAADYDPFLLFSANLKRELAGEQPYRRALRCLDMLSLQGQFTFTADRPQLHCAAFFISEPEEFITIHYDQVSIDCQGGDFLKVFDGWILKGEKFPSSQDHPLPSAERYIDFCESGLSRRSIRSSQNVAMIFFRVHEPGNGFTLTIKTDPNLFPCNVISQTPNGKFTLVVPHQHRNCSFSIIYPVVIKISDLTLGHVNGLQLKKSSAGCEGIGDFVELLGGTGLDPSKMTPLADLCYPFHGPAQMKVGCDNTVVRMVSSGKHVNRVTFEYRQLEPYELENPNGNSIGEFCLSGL

[14] = target: T7, Coagulation factor XII (Homo sapiens, UniProt P00748); assay: Factor XIIa Dose Response Confirmation from Single Well HTS. [Related pubchem assays (depositor defined):AID701]; type: functional
T7 sequence (P00748 whole entry): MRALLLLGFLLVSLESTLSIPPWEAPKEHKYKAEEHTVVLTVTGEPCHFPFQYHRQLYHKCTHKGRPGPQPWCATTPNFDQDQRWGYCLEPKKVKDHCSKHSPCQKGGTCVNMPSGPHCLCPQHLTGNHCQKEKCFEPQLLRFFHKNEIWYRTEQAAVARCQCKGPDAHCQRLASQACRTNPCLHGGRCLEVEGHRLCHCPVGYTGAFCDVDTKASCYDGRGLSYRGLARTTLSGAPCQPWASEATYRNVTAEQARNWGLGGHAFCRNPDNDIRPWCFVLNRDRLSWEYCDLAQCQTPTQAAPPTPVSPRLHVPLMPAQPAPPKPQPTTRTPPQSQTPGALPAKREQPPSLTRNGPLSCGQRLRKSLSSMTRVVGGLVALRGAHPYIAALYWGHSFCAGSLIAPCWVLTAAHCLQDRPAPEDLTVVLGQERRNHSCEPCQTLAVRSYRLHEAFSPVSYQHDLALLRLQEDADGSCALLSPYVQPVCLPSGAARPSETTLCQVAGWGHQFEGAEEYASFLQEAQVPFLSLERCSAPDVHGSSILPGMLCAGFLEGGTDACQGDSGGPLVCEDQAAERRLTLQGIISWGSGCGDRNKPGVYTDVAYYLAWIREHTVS

[15] = target: Mu-type opioid receptor (Homo sapiens, UniProt P35372); assay: SAR Analysis of Antagonists of the MOR Receptor using an Image-Based Assay - Set 3. [Related pubchem assays (depositor defined):AID1777, AID1785, AID1786, AID1966, AID2133, AID2136, AID2284, AID2285, AID2420]; type: functional
[16] = target: T8, Kappa-type opioid receptor (Homo sapiens, UniProt P41145); assay: SAR analysis of Antagonists of the Kappa Opioid Receptor (KOR) using an Image-Based Assay - Set 4. [Related pubchem assays (depositor defined):AID1777, AID1785]; type: functional
T8 sequence (P41145 whole entry): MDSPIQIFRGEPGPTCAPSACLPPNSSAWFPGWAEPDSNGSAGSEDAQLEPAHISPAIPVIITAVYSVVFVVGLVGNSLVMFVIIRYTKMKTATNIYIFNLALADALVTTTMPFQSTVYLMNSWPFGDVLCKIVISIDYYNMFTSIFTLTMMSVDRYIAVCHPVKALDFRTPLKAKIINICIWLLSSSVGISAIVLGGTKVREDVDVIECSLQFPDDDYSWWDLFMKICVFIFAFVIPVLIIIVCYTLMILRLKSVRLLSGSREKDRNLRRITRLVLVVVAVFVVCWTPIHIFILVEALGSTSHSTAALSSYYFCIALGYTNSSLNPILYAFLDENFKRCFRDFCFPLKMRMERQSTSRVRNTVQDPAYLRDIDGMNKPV

[17] = target: T8, Kappa-type opioid receptor; assay: SAR analysis of small molecule antagonists of the kappa opioid receptor via a luminescent beta-arrestin assay - Set 3. [Related pubchem assays (depositor defined):AID1777, AID1778, AID1785, AID1786, AID1966, AID2133, AID2136, AID2285, AID2495]; type: functional
[18] = target: Delta-type opioid receptor (Homo sapiens, UniProt P41143); assay: SAR Analysis of Antagonists of the DOR Receptor using an Image-Based Assay - Set 3. [Related pubchem assays (depositor defined):AID1777, AID1785]; type: functional;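 also: U2OS cells expressing DOR1 and beta-arrestin GFP stimulated with 100 nM SNC80; imaging of GFP-tagged beta-arrestin moving into spots after receptor activation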
[19] = target: Integrin alpha-4 (Homo sapiens, UniProt P13612); assay: VLA-4 integrin allosteric ligands, SAR follow-up, cell-based, LIBS antibody binding, flow cytometry (AID 488791); type: functional
[20] = target: Alkaline phosphatase, placental type (Homo sapiens, UniProt P05187); assay: PLAP enzyme inhibitors, confirmation, biochemical, luminescence (AID 1512); type: functional
[21] = target: FAD-linked sulfhydryl oxidase ALR (Homo sapiens, UniProt P55789); assay: inhibitors of human ALR sulfhydryl oxidase, dose response, biochemical, H2O2 detection, luminescence, cherry-pick (AID 493248)
[22] = target: Sphingosine 1-phosphate receptor 4 (Homo sapiens, UniProt O95977); assay: Late-stage fluorescence dose response cell-based assay to identify agonists of the Sphingosine 1-Phosphate Receptor 4 (S1P4): purchased compounds EC50. [Related pubchem assays (depositor defined):AID1509, AID1523, AID1563, AID1686, AID1701, AID1801]; type: functional
[23] = target: Epstein-Barr nuclear antigen 1 (Epstein-Barr virus (strain B95-8) (HHV-4) (Human herpesvirus 4), UniProt P03211); assay: EBNA-1 inhibitors, dose response, biochemical, fluorescence polarization, 1536-well (AID 2381); set-up: species or system human gammaherpesvirus 4;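 also: fluorescence polarization of a Cy5 DNA probe bound by EBNA-1 protein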
[24] = target: Lytic switch protein BZLF1 (Epstein-Barr virus (strain B95-8) (HHV-4) (Human herpesvirus 4), UniProt P03206); assay: EBV ZTA inhibitors, dose response, counter-screen for EBNA-1 inhibitor project, biochemical, fluorescence polarization, Epstein-Barr virus, 1536-well (AID 2377); set-up: species or system human gammaherpesvirus 4;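 also: fluorescence polarization of Cy5-labelled ZRE DNA probe bound by purified Zta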
[25] = decrease of PhoP-driven GFP reporter signal, S. Typhimurium, dose response, PhoP regulon inhibitor project, purified and synthesized compounds, set 2 (AID 2831); type: functional

T1 sequence (P09923 whole entry): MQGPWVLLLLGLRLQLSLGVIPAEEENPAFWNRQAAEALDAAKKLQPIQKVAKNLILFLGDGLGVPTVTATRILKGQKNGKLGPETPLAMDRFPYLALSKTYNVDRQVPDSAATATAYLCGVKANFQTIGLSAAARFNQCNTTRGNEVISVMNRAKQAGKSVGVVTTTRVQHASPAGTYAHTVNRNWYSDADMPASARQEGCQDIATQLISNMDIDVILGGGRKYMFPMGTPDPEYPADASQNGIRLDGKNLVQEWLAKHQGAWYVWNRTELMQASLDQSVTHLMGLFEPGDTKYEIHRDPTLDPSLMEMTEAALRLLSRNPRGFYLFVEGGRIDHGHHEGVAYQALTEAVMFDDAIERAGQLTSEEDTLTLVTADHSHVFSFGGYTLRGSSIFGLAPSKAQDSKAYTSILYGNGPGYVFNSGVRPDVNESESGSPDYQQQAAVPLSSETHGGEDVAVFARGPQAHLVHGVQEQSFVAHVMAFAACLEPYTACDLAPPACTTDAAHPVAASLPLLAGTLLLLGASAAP

## CC1(C)C[C@@H](O)CC2(C1)C[C@]1(C)CC(O)[C@H]2C(C)(C)C1 (stereo not given in full)
[1]
  EC50: > 100 µM (inactive)
[2]
  IC50: > 100 µM (inactive)

## COc1cc(OC)c2c(O)c3c(c(-c4c5c(c(O)c6c(OC)cc(OC)cc46)CO[C@@H](C)[C@H]5O)c2c1)[C@H](O)[C@H](C)OC3
[3]
  IC50: 2.51 µM (not active)
[4]
  EC50: > 300 µM (not active)
[5]
  IC50: 20.3 µM (active)
[6]
  IC50: 17.1 µM (active)
[7]
  IC50: 4.27 µM (active)
[8]
  EC50: > 300 µM (not active)
[9]
  IC50: 6.03 µM (active)

## Cc1ccc(S(=O)(=O)Nc2ccc(NC(=O)c3c(F)c(F)c(F)c(F)c3F)cc2)cc1
[10]
  CC50: 23 µM (active)
[11]
  EC50: > 29.9 µM (inactive)
[12]
  EC50: > 29.9 µM (not active)
[13]
  EC50: 5.66 µM (active)

## Cc1ccc(CNC(=O)C[S+]([O-])CC(=O)O)cc1 (stereo not given)
[14]
  IC50: > 50 µM (inactive)

## COc1ccc(N2CCN(CCCNC(=O)Cn3c(=O)c4cccn4c4cc(Br)cnc43)CC2)c(OC)c1
[15]
  IC50: 10.2 µM (inactive)
[16]
  IC50: 3.02 µM (active)
[17]
  IC50: 2.82 µM (active)
[18]
  IC50: > 32 µM (inactive)

## Cc1ccc(NC(=O)c2cc(N3C(=O)CCC3=O)ccc2N2CCOCC2)cc1Cl
[19]
  EC50: 23.3 µM (active)

## O=C(NNc1ccccn1)C(=O)NNS(=O)(=O)c1ccc(Cl)cc1
[20]
  IC50: > 100 µM (inactive)
[21]
  AC50: 0.786 µM (active)

## Cc1nn(Cc2ccccc2)c(Cl)c1C(=O)OC(C)C(=O)Nc1ccc(F)cc1Cl (stereo not given)
[22]
  EC50: > 50 µM (inactive)
[23]
  IC50: 5.89 µM (active)
[24]
  IC50: > 111 µM (not active)

## O=C1C2=C(Nc3ccccc3SC2c2cccc(Cl)c2)c2ccccc21 (stereo not given)
[25]
  IC50: > 150 µM (active)
